From patent US5348952A, “β-lactam derivatives of the cephem sulphone type” (Farmitalia Carlo Erba S.R.L., priority 1989, dated 1994)
Read-outs that look alike come from different tables or passages of the source.

Key:
[1] = biological target: T1, human leukocyte elastase (HLE) (Homo sapiens, UniProt P08246); assay: Inhibition of HLE activity, kinetic parameters (Protocol B); assay type: biochemical; conditions: for Ki: steady state, read-out: "Potency" K1^ (apparent dissociation constant of the HLE-inhibitor complex at steady state, Ki^ss)
T1 construct: purchased Calbiochem Lot 702038
T1 sequence (P08246 30-267): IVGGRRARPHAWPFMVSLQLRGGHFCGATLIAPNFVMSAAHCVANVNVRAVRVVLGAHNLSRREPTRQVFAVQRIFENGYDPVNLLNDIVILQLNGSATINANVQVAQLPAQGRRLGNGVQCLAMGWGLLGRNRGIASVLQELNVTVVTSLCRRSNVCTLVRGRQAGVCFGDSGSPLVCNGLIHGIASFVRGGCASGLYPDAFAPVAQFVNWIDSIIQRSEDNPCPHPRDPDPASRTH
Procedure: Protocol B--Inhibition of HLE activity (Calbiochem, Lot 702038) was determined at 37° C., 0.027M pH 7.4 phosphate buffer, 1% DMSO, 1% MeCN, NaCl (I=15), by monitoring the release of 7-amino-4-methylcoumarin (fluorescence detection) from N-methoxysuccinyl-alanyl-prolyl-valyl-7-amido-4-methylcoumarin as substrate, according to the equations: [formula] wherein: [P], [I], [S]=product, inhibitor and substrate concentration
km =Michaelis constant for the enzyme-substrate pair (independently determined under the same experimental conditions).

[2] = biological target: porcine pancreatic elastase, PPE (Sus scrofa, UniProt P00772); assay: Inhibition of PPE activity (Protocol A); assay type: biochemical; conditions: 30° C., 0.05M pH 7.4 phosphate buffer, 2.5% MeCN; 50% reduction of enzyme activity 6.4 minutes after zero time; read-out: PPE-inhibitory activity IC50 (converted)
Sequence of porcine pancreatic elastase, PPE (P00772 27-266): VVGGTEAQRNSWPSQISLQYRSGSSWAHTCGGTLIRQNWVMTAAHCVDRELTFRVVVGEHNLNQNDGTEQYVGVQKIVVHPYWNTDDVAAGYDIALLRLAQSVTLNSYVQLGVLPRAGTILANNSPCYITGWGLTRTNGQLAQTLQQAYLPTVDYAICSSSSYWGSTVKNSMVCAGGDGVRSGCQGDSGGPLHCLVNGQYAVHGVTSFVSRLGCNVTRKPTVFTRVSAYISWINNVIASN
Procedure: To illustrate this point, Table 1 reports the results of our preliminary screening test (carried out with porcine pancreatic elastase, PPE), wherein four representative compounds of the present invention (formula I) are compared with the corresponding 2-unsubstitued compounds of formula II (References A and B).
Protocol A--Inhibition of PPE activity was determined at 30° C., 0.05M pH 7.4 phosphate buffer, 2.5% MeCN, by monitoring the release of p-nitroaniline (410 nm, Carlo Erba Strumentazione Spectracomp spectrophotometer) from the substrate (N-t-Boc-alanyl-alanyl-prolyl-alanine-p-nitroanilide, 0.2 mM initial concentration).

[3] = 37° C., 0.027M pH 7.4 phosphate buffer, 1% DMSO, 1% MeCN, read-out: "Efficacy" Kon (rate of formation of the HLE-inhibitor complex)
[4] = 37° C., 0.027M pH 7.4 phosphate buffer, 1% DMSO, 1% MeCN

COC(=O)C1=C(C)C(Sc2nnnn2C)S(=O)(=O)[C@@H]2[C@@H](OC)C(=O)N12 (some centres unmarked) [Reference D, reference compound]
kon [1, 3]: 500 M⁻¹ s⁻¹
Ki [1, 4]: 38 nM
IC50 [2]: 12800 nM

CC1=C(C(=O)C(C)(C)C)N2C(=O)[C@H](Cl)[C@H]2S(=O)(=O)C1Sc1nc(=O)c(O)nn1C (stereo partly drawn) [n° 5, 4-tert-butylcarbonyl-7α-chloro-3-methyl-2-(2-methyl-5-oxo-6-hydroxy-2,3-dihydro-1,2,4-triazin-3-yl)-thio-3-cephem 1,1-dioxide]
IC50 [2]: 75.6 nM

CC1=C(C(=O)C(C)(C)C)N2C(=O)[C@H](Cl)[C@H]2S(=O)(=O)C1Sc1nc(=O)c(OC(c2ccccc2)c2ccccc2)nn1C (stereo partly drawn) [n° 4, 4-Tert-butylcarbonyl-7α-chloro-3-methyl-2-(2-methyl-5-oxo-6-benzhydryloxy-2,5-dihydro 1,2,4-triazin-3-yl-)thio-3-cephem 1,1-dioxide]
IC50 [2]: 71.5 nM

CC1=C(C(=O)OC(C)(C)C)N2C(=O)[C@H](Cl)[C@H]2S(=O)(=O)C1Sc1nc2ccccc2s1 (some centres unmarked) [Reference C, reference compound]
IC50 [2]: 4110 nM

CO[C@H]1C(=O)N2C(C(=O)C(C)(C)C)=C(C)C(Sc3nnnn3C)S(=O)(=O)[C@H]12 (stereo partly drawn) [n° 1, 4-tert-Butylcarbonyl-7α-methoxy-3-methyl-2-(1-methyl-1,2,3,4-tetrazol-5-yl)thio-3-cephem 1,1-dioxide]
kon [1, 3]: 90000 M⁻¹ s⁻¹
Ki [1, 4]: 8.3 nM
IC50 [2]: 96.3 nM

CC1=C(C(=O)C(C)(C)C)N2C(=O)[C@H](Cl)[C@H]2S(=O)(=O)C1 [Reference A, reference compound]
IC50 [2]: 6540 nM

CO[C@H]1C(=O)N2C(C(=O)C(C)(C)C)=C(C)C(Sc3nc(=O)c(O)nn3C)S(=O)(=O)[C@H]12 (stereo partly drawn) [n° 9, 4-tert-Butylcarbonyl-7α-methoxy-3-methyl-2-(2-methyl-5-oxo-6-hydroxy-2,5-dihydro-1,2,4-triazin-3-yl)thio-3-cephem 1,1-dioxide]
kon [1, 3]: 25000 M⁻¹ s⁻¹
Ki [1, 4]: 26 nM
IC50 [2]: 65.4 nM

CO[C@H]1C(=O)N2C(C(=O)C(C)(C)C)=C(C)C(Sc3nnnn3CCCC(=O)O)S(=O)(=O)[C@H]12 (stereo partly drawn) [n° 7, 4-tert-Butylcarbonyl-7α-methoxy-3-methyl-2-[1-(3-carboxy-1-propyl)-1,2,3,4-tetrazol-5-yl]thio-3-cephem 1,1-dioxide]
kon [1, 3]: 11000 M⁻¹ s⁻¹
Ki [1, 4]: 18 nM

CO[C@H]1C(=O)N2C(C(=O)C(C)(C)C)=C(C)CS(=O)(=O)[C@H]12 [Reference B, reference compound]
IC50 [2]: 6640 nM

CO[C@H]1C(=O)N2C(C(=O)N3CCCC3)=C(CSc3nc(=O)c(O)nn3C)CS(=O)(=O)[C@H]12 [Merck L-659,286, reference compound]
kon ([1]; pH 7.4, read-out: "Efficacy" Kon (rate of formation of the HLE-inhibitor complex)): 1500 M⁻¹ s⁻¹
